Converted amounts (≈) assume the structure as drawn.
What was measured:
[1] = tested on: S. aureus ATCC 43300 (MRSA); experiment: Minimum inhibitory concentration, broth microdilution; type: cell-based, Staphylococcus aureus; settings: compound alone; S. aureus ATCC 43300 (MRSA); CAMHB, 18 h; read-out: MIC
Description: (§1) The compounds were then analyzed for antibiotic repotentiation activity. […] The tested strains included USA300, which is a common and particularly virulent strain of community-acquired MRSA.

S. aureus USA300 (MRSA) [2] = experiment: as above; type: cell-based, Staphylococcus aureus; settings: compound alone; S. aureus USA300 (MRSA); CAMHB, 18 h; read-out: MIC
Description: as §1

S. aureus USA100 (MRSA) [3] = experiment: microbe, parasite or virus in culture; type: cell-based, Staphylococcus aureus; settings: compound alone, CAMHB, 18 h
S. aureus 43300 (MRSA) = experiment: Antibiotic repotentiation (antibiotic MIC with/without compound); type: cell-based, Staphylococcus aureus
Description: (§2) The overnight culture was diluted into fresh CAMHB to a concentration of 5×10^5 CFU/ml. […] On the same plate, a standard microdilution MIC with the tested antibiotics and no added compound was also performed to compare the antibiotic MIC in the presence and absence of compound. […] Fold reductions were calculated by dividing the MIC of the antibiotic without compound by the MIC of the antibiotic in the presence of compound.
as §1

S. aureus USA300 (MRSA) [4] = experiment: as above; type: cell-based, Staphylococcus aureus; settings: for Oxacillin MIC / Fold Reduction: +50 μM compound, S. aureus USA300 (MRSA); for Fold Reduction: oxacillin MIC; for MIC of antibiotic: MRSA USA300
Description: as §2, §1

S. aureus USA100 (MRSA) [5] = experiment: as above; type: cell-based, Staphylococcus aureus
Description: as §2

MRSA 43300 biofilm = experiment: Biofilm inhibition, crystal violet assay; type: cell-based, Staphylococcus aureus; settings: 30 h
Description: (§3) A standard static crystal violet assay was used to quantify biofilm inhibition.^45 Cultures of S. aureus or S. epidermidis were grown overnight in TSBG (tryptic soy broth with 5% glucose) at 37° C. with shaking. These cultures were used to inoculate fresh TSBG to a calculated optical density of 0.01 at 600 nm (OD600). […] Untreated aliquots were used as a positive control and water served as a negative control. 100 μl of these suspensions were added to the wells of a 96-well polyvinylchloride microtiter plate. […] After incubation, media was discarded and the plates were washed with water to remove non-adherent cells. Adherent biofilms were stained with 110 μl of crystal violet (0.1% in water) and incubated at room temperature for thirty minutes. The crystal violet staining solution was discarded and plates were washed with water to remove excess stain. The resulting stained biofilms were solubilized with 200 μL of 95% ethanol for 10 minutes. 125 μl of the ethanol solutions were transferred to a clear polystyrene microtiter plate for evaluation. Absorbance at 540 nm was recorded using a BioTek Synergy H1 microplate reader. The absorbance of the negative control lanes was subtracted from the experimental values to account for background staining. Percent inhibition was calculated by comparison of the absorbance values of control versus treated wells under identical conditions.
Antibiotic resistance and biofilm formation share similar regulatory mechanisms. […] Biofilm inhibition was first assessed in S. aureus 43300, a methicillin-resistant strain (see Table 18). As described in Materials and Methods, a standard crystal violet assay was used to assess biofilm inhibition by the tested compounds. The IC50 is described as the compound concentration required to inhibit 50% of biofilm formation. The standard deviation is calculated from at least 3 independent experiments.

[6] = tested on: S. epidermidis ATCC 49461 biofilm; experiment: Biofilm inhibition, crystal violet assay; type: cell-based, Staphylococcus epidermidis; settings: 30 h, read-out: Inhibition of biofilm formation IC50
Description: as §3

[7] = tested on: S. aureus NR-49120 (VRSA); experiment: Antibiotic repotentiation (antibiotic MIC with/without compound); type: cell-based, Staphylococcus aureus; settings: VRSA NR-49120; for Fold Reduction: antibiotic MIC
Description: as §2

[8] = +50 μM compound, S. aureus 43300 (MRSA)
[9] = oxacillin MIC, +50 μM compound, S. aureus 43300 (MRSA)
[10] = +50 μM compound, S. aureus USA100 (MRSA)
[11] = oxacillin MIC, +50 μM compound, S. aureus USA100 (MRSA)
[12] = +Amoxapine (150 μM), S. aureus 43300 (MRSA)
[13] = antibiotic MIC, +Amoxapine (150 μM), S. aureus 43300 (MRSA)
[14] = antibiotic MIC, +Loratadine 25 μM, MRSA 43300
[15] = antibiotic MIC, +Loratadine 50 μM, MRSA 43300
[16] = antibiotic alone, no compound, S. aureus 43300 (MRSA)
[17] = antibiotic alone, S. aureus ATCC 43300 (MRSA)
[18] = antibiotic MIC, +Loratadine 25 μM, MRSA USA100
[19] = antibiotic MIC, +Loratadine 50 μM, MRSA USA100

SMILES	MIC [1] [µM]	MIC (S. aureus USA300 (MRSA) [2]) [µM]	MIC (S. aureus USA100 (MRSA) [3]) [µM]	Oxacillin MIC (S. aureus 43300 (MRSA); [8])	Fold Reduction (S. aureus 43300 (MRSA); [9])	Oxacillin MIC (S. aureus USA300 (MRSA) [4])	Fold Reduction (S. aureus USA300 (MRSA) [4])	Oxacillin MIC (S. aureus USA100 (MRSA) [5]; [10]) [µg/mL]	Fold Reduction (S. aureus USA100 (MRSA) [5]; [11])	MIC of antibiotic (S. aureus 43300 (MRSA); [12]) [µg/mL]	MIC of antibiotic (S. aureus 43300 (MRSA); +Loratadine 25 μM, MRSA 43300)	MIC of antibiotic (S. aureus 43300 (MRSA); +Loratadine 50 μM, MRSA 43300)	Fold Reduction (S. aureus 43300 (MRSA); [13])	Fold Reduction (S. aureus 43300 (MRSA); [14])	Fold Reduction (S. aureus 43300 (MRSA); [15])	MIC of antibiotic (S. aureus 43300 (MRSA); [16]) [µg/mL]	MIC of antibiotic (S. aureus 43300 (MRSA); [17]) [µg/mL]	MIC of antibiotic (S. aureus USA300 (MRSA) [4]; +Loratadine 25 μM) [µg/mL]	MIC of antibiotic (S. aureus USA300 (MRSA) [4]; +Loratadine 50 μM) [µg/mL]	MIC of antibiotic (S. aureus USA300 (MRSA) [4]; antibiotic alone) [µg/mL]	also measured
Brc1cccc2[nH]c3ccccc3c12 [IV-4]	200	100	100 (≈ 24.6 µg/mL)	32 µg/mL	1	2 µg/mL	32	4	128												
Brc1ccc2[nH]c3ccccc3c2c1 [IV-3]	>200	>200	>200	16 µg/mL	2	64 µg/mL	1	512	1												
Clc1ccc2c(c1)Nc1ccccc1CC2 [Compound I-5, 3-chloro-10,11-dihydro-5H-dibenzo[b,f]azepine]					16																IC50 (MRSA 43300 biofilm; Staphylococcus aureus, MRSA): 18.7 µM
Clc1cc2cccnc2c2ncccc12 [Compound V-6]	125																				Oxacillin MIC (S. aureus 43300 (MRSA); +31.25 μM compound, S. aureus 43300 (MRSA)): 4 µg/mL; Fold Reduction (S. aureus 43300 (MRSA); oxacillin MIC, +31.25 μM compound, S. aureus 43300 (MRSA)): 8; IC50 (MRSA 43300 biofilm): 184 µM; IC50 [6]: 57.1 µM
Cc1nnc(SCC2=C(C(=O)O)N3C(=O)[C@@H](NC(=O)Cn4cnnn4)[C@H]3SC2)s1 [Cefazolin]										0.5	16 µg/mL	1 µg/mL	32	4	64	16	64	4	1	32	MIC of antibiotic ([7]; +Loratadine 25 μM): 32 µg/mL; MIC of antibiotic ([7]; +Loratadine 50 μM): 8 µg/mL; Fold Reduction ([7]; +Loratadine 25 μM): 4; Fold Reduction ([7]; +Loratadine 50 μM): 16; MIC of antibiotic ([7]; antibiotic alone): 128 µg/mL; MIC of antibiotic (S. aureus USA100 (MRSA) [5]; +Loratadine 25 μM, MRSA USA100): 128 µg/mL; MIC of antibiotic (S. aureus USA100 (MRSA) [5]; +Loratadine 50 μM, MRSA USA100): 1 µg/mL; Fold Reduction (S. aureus USA100 (MRSA) [5]; [18]): 2; Fold Reduction (S. aureus USA100 (MRSA) [5]; [19]): 256; MIC of antibiotic (S. aureus USA100 (MRSA) [5]; antibiotic alone, MRSA USA100): 256 µg/mL
Brc1ccc2[nH]c3ccc(Br)cc3c2c1 [IV-5]	>200	>200	>200	8/4	4/8	32 µg/mL	2	4	128												
CN[C@H](CC(C)C)C(=O)N[C@H]1C(=O)N[C@@H](CC(N)=O)C(=O)N[C@H]2C(=O)N[C@H]3C(=O)N[C@H](C(=O)N[C@H](C(=O)O)c4cc(O)cc(O)c4-c4cc3ccc4O)[C@H](O)c3ccc(c(Cl)c3)Oc3cc2cc(c3O[C@@H]2O[C@H](CO)[C@@H](O)[C@H](O)[C@H]2O[C@H]2C[C@](C)(N)[C@H](O)[C@H](C)O2)Oc2ccc(cc2Cl)[C@H]1O [Vancomycin]										2	1 µg/mL	1 µg/mL	1	1	1	2	1	1	1	1	MIC of antibiotic ([7]; +Loratadine 25 μM): 512 µg/mL; MIC of antibiotic ([7]; +Loratadine 50 μM): 128 µg/mL; Fold Reduction ([7]; +Loratadine 25 μM): 2; Fold Reduction ([7]; +Loratadine 50 μM): 8; MIC of antibiotic ([7]; antibiotic alone): 1024 µg/mL; MIC of antibiotic (S. aureus USA100 (MRSA) [5]; +Loratadine 25 μM, MRSA USA100): 2 µg/mL; MIC of antibiotic (S. aureus USA100 (MRSA) [5]; +Loratadine 50 μM, MRSA USA100): 2 µg/mL; Fold Reduction (S. aureus USA100 (MRSA) [5]; [18]): 1; Fold Reduction (S. aureus USA100 (MRSA) [5]; [19]): 1; MIC of antibiotic (S. aureus USA100 (MRSA) [5]; antibiotic alone, MRSA USA100): 2 µg/mL
CC1(C)S[C@@H]2[C@H](NC(=O)[C@H](N)c3ccccc3)C(=O)N2[C@H]1C(=O)O [Ampicillin]										4	16/8	1/2	8	1/2	4	32	16	8	0.5	8	MIC of antibiotic ([7]; +Loratadine 25 μM): 16 µg/mL; MIC of antibiotic ([7]; +Loratadine 50 μM): 4 µg/mL; Fold Reduction ([7]; +Loratadine 25 μM): 1; Fold Reduction ([7]; +Loratadine 50 μM): 4; MIC of antibiotic ([7]; antibiotic alone): 16 µg/mL; MIC of antibiotic (S. aureus USA100 (MRSA) [5]; +Loratadine 25 μM, MRSA USA100): 16 µg/mL; MIC of antibiotic (S. aureus USA100 (MRSA) [5]; +Loratadine 50 μM, MRSA USA100): 1/2; Fold Reduction (S. aureus USA100 (MRSA) [5]; [18]): 2; Fold Reduction (S. aureus USA100 (MRSA) [5]; [19]): 32/16; MIC of antibiotic (S. aureus USA100 (MRSA) [5]; antibiotic alone, MRSA USA100): 32 µg/mL
c1ccc2c(c1)[nH]c1ccccc12 [IV-1]	>200	>200	>200	32 µg/mL	1	64 µg/mL	1	512	1												
Brc1cccc2c1[nH]c1ccccc12 [IV-2]	>200	>200	>200	4 µg/mL	8	16/8	4/8	8	64												
